{"source": "patent US6703485B2", "about": "“Brain and heart cyclic nucleotide gated ion channel compounds and uses thereof” (The Trustees of Columbia University in the City of New York, priority 1997, dated 2004)", "key": {"[1]": {"target": "T1, bovine photoreceptor CNG channels (Bos taurus, UniProt Q00194)", "T1 sequence (Q00194 1-690)": "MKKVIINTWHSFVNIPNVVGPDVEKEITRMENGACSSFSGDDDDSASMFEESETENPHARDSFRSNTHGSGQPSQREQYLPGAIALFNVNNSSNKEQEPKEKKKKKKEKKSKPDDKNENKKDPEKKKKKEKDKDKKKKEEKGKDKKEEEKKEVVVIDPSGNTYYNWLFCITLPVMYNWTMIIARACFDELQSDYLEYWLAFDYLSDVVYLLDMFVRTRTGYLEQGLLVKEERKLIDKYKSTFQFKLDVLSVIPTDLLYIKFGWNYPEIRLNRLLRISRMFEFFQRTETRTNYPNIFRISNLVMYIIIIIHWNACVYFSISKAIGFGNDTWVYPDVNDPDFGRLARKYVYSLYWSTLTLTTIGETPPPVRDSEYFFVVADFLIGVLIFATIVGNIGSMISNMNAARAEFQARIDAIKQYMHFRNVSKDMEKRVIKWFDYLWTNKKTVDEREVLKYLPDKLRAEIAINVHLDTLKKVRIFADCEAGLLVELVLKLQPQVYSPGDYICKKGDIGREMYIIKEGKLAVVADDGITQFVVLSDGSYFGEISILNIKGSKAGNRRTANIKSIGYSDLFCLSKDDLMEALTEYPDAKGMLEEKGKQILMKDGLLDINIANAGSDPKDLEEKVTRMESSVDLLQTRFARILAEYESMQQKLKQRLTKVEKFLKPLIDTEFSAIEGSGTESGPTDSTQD", "settings": "Kramer and Tibbs, 1996; cited from earlier work"}, "[2]": {"system": "Ih in hippocampal neurons", "settings": "Pedarzani and Storm, 1995; cited from earlier work"}, "[3]": {"system": "If in sino-atrial node", "settings": "DiFrancesco and Tortora, 1991; cited from earlier work"}, "[4]": {"system": "Ih in sensory neurons", "settings": "Ingram and Williams; cited from earlier work"}, "[5]": {"target": "T2, mBCNG-1 channel (Mus musculus, UniProt O88704)", "T2 construct": "expressed in transfected cells; host or cells: Xenopus oocytes injected with cRNA (pSD64TR vector, SP6 transcript); cell-free inside-out and outside-out patches", "T2 sequence (O88704 whole entry)": "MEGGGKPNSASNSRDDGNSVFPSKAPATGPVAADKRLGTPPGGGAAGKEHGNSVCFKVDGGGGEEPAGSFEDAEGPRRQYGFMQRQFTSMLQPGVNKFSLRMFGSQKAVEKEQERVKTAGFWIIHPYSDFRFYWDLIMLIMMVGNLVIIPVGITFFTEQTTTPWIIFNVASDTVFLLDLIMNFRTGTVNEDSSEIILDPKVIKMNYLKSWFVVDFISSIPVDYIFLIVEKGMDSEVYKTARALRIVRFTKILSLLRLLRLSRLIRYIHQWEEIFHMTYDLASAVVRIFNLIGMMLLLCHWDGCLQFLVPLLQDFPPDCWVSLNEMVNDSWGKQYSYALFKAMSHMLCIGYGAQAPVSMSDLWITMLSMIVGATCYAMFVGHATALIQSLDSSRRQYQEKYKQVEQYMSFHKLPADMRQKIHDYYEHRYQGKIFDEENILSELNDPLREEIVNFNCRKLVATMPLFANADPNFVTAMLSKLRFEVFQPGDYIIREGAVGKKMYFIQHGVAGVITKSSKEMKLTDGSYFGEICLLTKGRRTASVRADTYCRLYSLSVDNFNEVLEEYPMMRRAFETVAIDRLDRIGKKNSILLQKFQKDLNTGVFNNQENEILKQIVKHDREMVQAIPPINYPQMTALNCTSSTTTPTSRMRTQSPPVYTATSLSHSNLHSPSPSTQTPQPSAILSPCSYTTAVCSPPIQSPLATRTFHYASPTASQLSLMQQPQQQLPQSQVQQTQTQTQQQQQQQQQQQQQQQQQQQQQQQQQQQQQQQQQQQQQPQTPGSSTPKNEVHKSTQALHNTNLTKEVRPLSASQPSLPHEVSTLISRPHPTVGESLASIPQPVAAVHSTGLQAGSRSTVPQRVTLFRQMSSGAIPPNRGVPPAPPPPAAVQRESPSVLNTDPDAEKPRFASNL", "assay_type": "biochemical"}, "[6]": {"system": "Pacemaker channel", "settings": "myocardial ischemia, Schlack et al., 1998; cited from earlier work"}}, "note": "Values joined by “and” are separate entries in the source; they are usually repeats but may differ in a detail not shown here. Equal values may be shown once.", "data": [{"smiles": "Nc1nc2c(ncn2[C@@H]2O[C@@H]3COP(O)(=S)O[C@H]3[C@H]2O)c(=O)[nH]1", "note": "(stereo partly shown) [Rp-cGMPS]", "values": [{"measurement": "Effect on channel opening", "setting": "[1]", "value": "antagonist of channel opening"}]}, {"smiles": "Nc1ncnc2c1ncn2[C@@H]1O[C@@H]2COP(=O)(O)O[C@H]2[C@H]1O", "note": "[cAMP]", "values": [{"measurement": "cAMP-dependent shift of Ih", "setting": "[2]", "value": "2-3 mV"}, {"measurement": "cAMP-dependent shift of If", "setting": "[3]", "value": 10, "unit": "mV"}, {"measurement": "cAMP-dependent shift of Ih", "setting": "[4]", "value": "4-6 mV"}]}, {"smiles": "[Cl-].[Cs+]", "note": "[Cs]", "values": [{"measurement": "% inhibition of mBCNG-1 current", "setting": "[5]", "value": "92.4±2.5", "unit": "%"}, {"measurement": "Hill coefficient for inhibition of mBCNG-1 current by Cs", "setting": "[5]", "value": "~1 and 1.08"}, {"measurement": "IC50", "setting": "[5]; read-out: IC50 for inhibition of mBCNG-1 current by Cs", "value": "~200 µM and 201 µM"}]}, {"smiles": "[Ba+2]", "note": "[Ba]", "values": [{"measurement": "mean percent inhibition of mBCNG-1 current", "setting": "[5]; 1 mM Ba in external solution, outside-out patch, n=3", "value": "0±5", "unit": "%"}]}, {"smiles": "Nc1nc2c(ncn2[C@@H]2O[C@@H]3COP(O)(=S)O[C@H]3[C@H]2O)c(=O)[nH]1", "note": "(stereo partly shown) [Sp-cGMPS]", "values": [{"measurement": "Effect on channel opening", "setting": "[1]", "value": "agonist"}]}, {"smiles": "CCN(c1ccccc1)c1cc(=NC)n(C)c(C)n1.Cl", "note": "[ZD 7288]", "values": [{"measurement": "Effect on infarct size", "setting": "[6]", "value": "reduce infarct size"}]}]}
